Test results published in patent US7807781B2, “Inhibitors of serine protease activity and their use in methods and compositions for treatment of viral infections” (The Regents of the University of Colorado, priority 1999, dated 2010).

B1: UTI: Human urinary trypsin inhibitor, a protein indistinguishable from ITI (protein, UniProt P02760 206-352, looked up)
Inter-alpha-trypsin inhibitor …: AVLPQEEEGSGGGQLVTEVTKKEDSCQLGYSAGPCMGMTSRYFYNGTSMACETFQYGGCMGNGNNFVTEKECLQTCRTVAACNLPIVRGPCRAFIQLWAFDAVKGKCVLFPYGGCQGNGNKFYSEKECREYCGVPGDGDEELLRFSN
modifications: Inter-alpha-trypsin inhibitor light chain

Tested on: HIV-infected CCRF-CEM and uninfected Molt-4 cells
Experiment: not given
Details: cited from earlier work

**Q.** Which “concentration range of dose-dependent inhibition of syncytium formation” value does the source give for B1 here?
**A.** Its value is 0.1 to 1 mM.

Tested on: NF-κB
Experiment: IL-18-induced NF-κB expression
Assay type: cell-based
Details: compared with IL-18 alone (lane 4)

**Q.** With `Cc1cccc(Cc2nnc(C(=O)C(NC(=O)[C@@H]3CCCN3C(=O)[C@@H](NC(=O)OCc3ccccc3)C(C)C)C(C)C)o2)c1` (stereo partly shown) [P3 inh] as the molecule, how does the “IL-18-induced NF-κB expression” value read?
**A.** Its value is “reduced”.

Tested on: HIV-1 strain A018A in MAGI-CCR-5 cells
Experiment: not given
Assay type: cell-based
Details: compared with FVYLI (FIG. 4); alone or in combination; not shown

**Q.** With “AVFLM: short peptide related to C-terminal pentapeptide of AAT” as the molecule, how does the “effect on HIV production in MAGI cells” value read?
**A.** Its value is “more or less similar effect”.

**Q.** With “FAFLM: short peptide related to C-terminal pentapeptide of AAT” as the molecule, how does the “effect on HIV production in MAGI cells” value read?
**A.** Its value is “more or less similar effect”.

**Q.** With “FIIMI: short peptide related to C-terminal pentapeptide of AAT” as the molecule, how does the “effect on HIV production in MAGI cells” value read?
**A.** The value was “more or less similar effect”.

**Q.** For “FLFAV: short peptide related to C-terminal pentapeptide of AAT”, which “effect on HIV production in MAGI cells” value is on record?
**A.** The value was “more or less similar effect”.

**Q.** Which “effect on HIV production in MAGI cells” value does the source give for “FLFCI: short peptide related to C-terminal pentapeptide of AAT” here?
**A.** Its value is “more or less similar effect”.

**Q.** With “FLFFI: short peptide related to C-terminal pentapeptide of AAT” as the molecule, how does the “effect on HIV production in MAGI cells” value read?
**A.** Its value is “more or less similar effect”.

**Q.** Which “effect on HIV production in MAGI cells” value does the source give for “FLFLI: short peptide related to C-terminal pentapeptide of AAT” here?
**A.** Its value is “more or less similar effect”.

**Q.** With “FLFVL: short peptide related to C-terminal pentapeptide of AAT” as the molecule, how does the “effect on HIV production in MAGI cells” value read?
**A.** The value was “more or less similar effect”.

**Q.** With “FLFVV: short peptide related to C-terminal pentapeptide of AAT” as the molecule, how does the “effect on HIV production in MAGI cells” value read?
**A.** Its value is “more or less similar effect”.

**Q.** With “FLMFI: short peptide related to C-terminal pentapeptide of AAT” as the molecule, how does the “effect on HIV production in MAGI cells” value read?
**A.** The value was “more or less similar effect”.

**Q.** With “FLMII: short peptide related to C-terminal pentapeptide of AAT” as the molecule, how does the “effect on HIV production in MAGI cells” value read?
**A.** Its value is “more or less similar effect”.

**Q.** With “FLVFI: short peptide related to C-terminal pentapeptide of AAT” as the molecule, how does the “effect on HIV production in MAGI cells” value read?
**A.** The value was “more or less similar effect”.

**Q.** With “FMLLI: short peptide related to C-terminal pentapeptide of AAT” as the molecule, how does the “effect on HIV production in MAGI cells” value read?
**A.** Its value is “more or less similar effect”.

**Q.** With “FVALM: short peptide related to C-terminal pentapeptide of AAT” as the molecule, how does the “effect on HIV production in MAGI cells” value read?
**A.** Its value is “more or less similar effect”.

**Q.** For “FVFAM: short peptide related to C-terminal pentapeptide of AAT”, which “effect on HIV production in MAGI cells” value is on record?
**A.** The value was “more or less similar effect”.

**Q.** Which “effect on HIV production in MAGI cells” value does the source give for “FVFLA: short peptide related to C-terminal pentapeptide of AAT” here?
**A.** The value was “more or less similar effect”.

**Q.** For “FVFLM: short peptide related to C-terminal pentapeptide of AAT”, which “effect on HIV production in MAGI cells” value is on record?
**A.** The value was “more or less similar effect”.

**Q.** Which “effect on HIV production in MAGI cells” value does the source give for “FVYLI: carboxyterminal peptide derived but not necessarily identical to a respective C-terminal pentapeptide from AAT” here?
**A.** Its value is “more or less similar effect”.

Tested on: HIV-1 production in U1 cells
Experiment: U1 monocytic cell assay, IL-18-induced HIV-1 p24 antigen
Assay type: cell-based
Details: doses comparable to the composition of the invention (FIG. 6)
Source text: U1 monocytic cell assay. U1 cells are obtained from the AIDS Research and Reference Reagent Program, National Institute of Allergy and Infectious Diseases, NIH. U1 cells are maintained in T-175 polystyrene flasks (Falcon, Becton Dickinson, Franklin Lakes, N.J.) in medium and used when in log phase growth. Cells are counted in a hemacytometer, examined for viability by Trypan blue exclusion (>95% for all experiments) and resuspended in fresh medium at 2×10^6 per ml. Two-hundred fifty […] are added to wells of 24-well polystyrene tissue culture plates (Falcon), followed by the addition of medium or AAT to produce the final concentration to be tested in a volume of […]. After 1.0 hr of incubation (37° C., 5% CO2), 50 ml of medium (control) or stimulus diluted in medium are added to wells to produce the final concentration of stimulus to be tested. The final culture volumes are […] and contained 1×10^6 cells per ml. After 48 hr of incubation (37° C. and 5% CO2) 50 ml of 10% (vol/vol) Triton-X-100 (Fisher Scientific, Fair Lawn, N.J.) is added to each culture (final concentration of 1% vol/vol), and cultures are frozen and thawed once. This is followed by assay for HIV-1 p24 antigen by ELISA with a lower limit of detection of 31 pg/ml (NCI-Frederick Cancer Research and Development Center, Frederick, Md.). The disruption of cells due to the addition of Triton-X-100 and the freeze-thaw cycle produced cell lysates and enabled assessment of total (secreted and cell-associated) production of p24 antigen.
Data are presented as means±SEM. Group means are compared by ANOVA using Fisher's least significant difference. For data expressed as percent change, the values for p24 in control cultures (medium alone) are subtracted from those for each culture-containing stimulus. The p24 concentrations in cultures conducted in the presence of stimulus alone are set at 100%. Percent p24 in cultures containing stimulus and AAT are calculated by dividing the measured p24 by that present in cultures containing stimulus alone. The resultant fraction is expressed as a percent.
The U1 cell line is derived from human monocytic U937 cells into which 2 copies of HIV-1 provirus are incorporated into host genome. Exposing U1 cells to pro-inflammatory cytokines such as IL-18, IL-1, IL-6 and TNF, phorbol esters or hyperosmolarity results in the induction of HIV-1 as assessed by p24 antigen. Stimulation of U1 cells with 0.5 nM IL-18 induced large amounts of p24 antigen after 48 hr of incubation in 3 separate experiments. U1 cells cultured in medium alone (control) contained a mean of 41.3±11.5 pg/ml p24 antigen, which is increased 150-fold to 6,235±1,775 pg/ml p24 following stimulation with IL-18. […] At 1, 2 and 3 mg/ml AAT, the percent reductions observed compared to stimulation with IL-18 alone are 65±1.8, 93±3.0 and 98±1%, respectively.

**Q.** Which anti-HIV activity does the source give for “Prolastin: commercially available purified variant of AAT sold by Bayer, used as control AAT preparation” here?
**A.** Its anti-HIV activity is “fails to display anti-HIV activity”.

Same assay, conditions: same experimental condition as in Example 1 (FIG. 11)

**Q.** For `Cc1cccc(Cc2nnc(C(=O)C(NC(=O)[C@@H]3CCCN3C(=O)[C@@H](NC(=O)OCc3ccccc3)C(C)C)C(C)C)o2)c1` (stereo partly shown) [P3 inh], which anti-HIV effect is on record?
**A.** The anti-HIV effect was “significant anti-HIV effect”.
